From publication PMC3393750, “Small Molecule Inhibitors of the LEDGF Site of Human Immunodeficiency Virus Integrase Identified by Fragment Screening and Structure Based Design” (PLoS ONE, 2012)
Read-outs that look alike come from different tables or passages of the source.

Assays:
[1] = target: T1, His6-tagged HIV IN / Flag-tagged LEDGF interaction (Human immunodeficiency virus type 1 group M subtype B, UniProt P12497); experiment: IN-LEDGF AlphaScreen (AS) assay; type: binding, HIV-1; conditions: 30 nM IN, 30 nM Flag-LEDGF, 30°C
T1 construct: Hexa-His tagged full length HIV IN was expressed and purified as follows; made in house; host or cells: E. coli BL21(DE3), pET28b(+)
Procedure: (§1) For the IN-LEDGF AS assay, compound dilutions and His6-tagged IN (30 nM final concentration) were initially incubated together in 10 µl of reaction buffer (25 mM Tris-Cl pH 7.5, 25 mM NaCl, 5 mM MnCl2, 5 mM MgCl2, 5 mM BME, 50 µg/ml bovine serum albumin and 0.05% (v/v) Tween-20) for 10 min at room temperature in AlphaPlate™-384 SW plates (Perkin-Elmer). Subsequently, 10 µl reaction buffer containing Flag-tagged LEDGF (30 nM final concentration), AS Ni-chelate donor beads (Perkin-Elmer; 5 µg/ml final) and AlphaLISA anti-FLAG acceptor beads (Perkin-Elmer; 5 µg/ml final) were added and protein association allowed to occur for 1 hour in the dark at 30°C before emission from the donor beads was measured using a PHERAstar FS plate-reader (BMG Labtech). Counter screen assays to ensure the compounds were not inhibiting the binding of the His or FLAG tags to the beads or quenching of the signal, were performed under the same reaction conditions except that a Flag-His6 fusion protein was used (20 nM final) instead of individual His6-tagged IN and Flag-tagged LEDGF proteins, and the initial 10 min incubation at room temperature was omitted.

HIV-1 with wild type IN = experiment: Single-round infectivity assay in 293T cells, wild type IN; type: cell-based; conditions: Human immunodeficiency virus 1, HEK-293T, read-out: EC50 cell infectivity assay, wild type IN
Procedure: (§2) Single-round infectivity assays were performed with 293T cells. […]. […] Culture supernatants containing VSV-G pseudotyped virions were harvested 64 hours post-transfection, clarified by centrifugation to remove cell debris, and stored at −80°C. HIV IN mutations known to confer resistance to published IN inhibitors were prepared by site directed mutagenesis of the pol (IN) gene in a shuttle vector which contained the majority of the HIV gag and pol sequence. The mutated IN coding region was then sequence verified and exchanged for the wild-type coding sequence in the pHIV env-Luc reporter virus plasmid. Single round infection assays were conducted in 293T cells seeded in 96 well plates 16 hours prior to compound addition. Compounds were pre-incubated with cells for 4 hours at 37°C followed by the addition of sufficient virus to generate approximately 10,000 Luciferase light units in the absence of compound. Luciferase readout was measured 48 hours post-infection using the Bright-Glo™ reagent (Promega) according to the manufacturer’s instructions.

[2] = tested on: HIV-1 with IN N155H/E92Q (NHEQ); experiment: Single-round infectivity assay in 293T cells, IN NHEQ mutant; type: cell-based; conditions: Human immunodeficiency virus 1, HEK-293T, read-out: EC50 cell infectivity assay, IN NHEQ
Procedure: as §2

[3] = tested on: HIV-1 with IN Q148H/G140S (QHGS); experiment: Single-round infectivity assay in 293T cells, IN QHGS mutant; type: cell-based; conditions: Human immunodeficiency virus 1, HEK-293T, read-out: EC50 cell infectivity assay, IN QHGS
Procedure: as §2

[4] = tested on: LEDGF interaction with IN; parameters: method as in PMID 20473303; conditions: read-out: AS IC50; cited from earlier work
HIV IN [5] = target: T2, HIV IN (Human immunodeficiency virus type 1 group M subtype B, UniProt P12497); conditions: read-out: IC50 inhibition of strand transfer activity of HIV IN; cited from earlier work
HIV-1 [6] = tested on: HIV-1; parameters: method as in PMID 20473303; conditions: MT-4 cells; read-out: EC50 HIV-1 infection of MT-4 cells; cited from earlier work
HIV-1 [7] = tested on: HIV-1; parameters: method as in PMID 20473303; conditions: PBMC cells; read-out: EC50 HIV-1 infection of PBMC cells; cited from earlier work
[8] = target: T3, HIV integrase catalytic core domain core3H (C56S, F139D, F185H) (Human immunodeficiency virus type 1 group M subtype B, UniProt P12497, C1203S/F1286D/F1332H); experiment: SPR binding to core3H; conditions: construct not given
T3 construct: catalytic core domain (CCD) IN (residues 50 to 210) containing the mutations C56S, F139D and F185H (core3H); made in house; host or cells: E. coli, pET28b(+)
Procedure: Core3H and core4H proteins (∼3×10^−8 moles) were “minimally” biotinylated on ice for 2 hours using an equimolar concentration of EZ-Link® Sulfo-NHS-LC-LC-Biotin (Pierce). To remove unreacted biotin reagent, biotinylated proteins were passed through a Superdex 75 (10/300 GL) column equilibrated in ‘SPR capture’ buffer (50 mM HEPES pH 7.4, 150 mM NaCl, 0.05% (v/v) Tween20, 5 mM DTT, 10 mM MgCl2). The eluted proteins were stored frozen in 50 µl aliquots at −70°C. Streptavidin (Sigma) was immobilized at 25°C onto a CM7 sensor chip (GE Healthcare) docked in a Biacore T200 upgrade instrument (GE Healthcare) using a previously described procedure resulting in immobilization levels of approximately 12000 RU of protein being coupled in all flow cells. The biotinylated core IN proteins were captured onto a Streptavidin chip surface in SPR capture buffer by injecting at 5 µL/min for 5 min over a single flow cell, typically resulting in immobilization of approximately 2300 RU of target protein. A minimally-biotinylated tyrosine kinase domain of CSF-1-R was captured (∼4300 RU) in a separate flow cell to provide for an unrelated negative control. […] All SPR binding experiments were performed at 20°C in SPR binding buffer (50 mM HEPES pH 7.4, 150 mM NaCl, 0.05% (v/v) Tween20, 5 mM DTT, 10 mM MgCl2, 5% (v/v) DMSO). Small molecules stock solutions were serially diluted (2-fold) in SPR binding buffer and injected for 30 sec contact time at 60 µL/min and then allowed to dissociate for 60 sec. The entire concentration series for each compound was performed in triplicate.
Raw sensorgram data were processed, solvent corrected and double referenced using Scrubber software (BioLogic Software, Australia). For easy comparison between data sets, all experiments were normalized using a normalization formula of Giannetti et al. To determine the binding affinity (KD), responses at equilibrium for each analyte were fitted to a 1∶1 steady state affinity model available within Scrubber.

Flag-His6 fusion protein = experiment: AlphaScreen counter screen; conditions: Flag-His6 fusion protein 20 nM
Procedure: as §1, with “omitted. The specificity of FLAG-LEDGF for IN binding was confirmed by competing the FLAG-LEDGF with untagged LEDGF. At a 1∶1 molar ratio with FLAG-LEDGF, untagged LEDGF reduced the AS signal by 50%.” for “omitted.”

HIV IN [9] = target: T2, HIV IN; experiment: Strand transfer assay which did not contain LEDGF; type: biochemical; conditions: without LEDGF; data not shown
HIV-1NL4-3 = experiment: Virus infectivity assay (p24) in HuT78 cells; type: cell-based; conditions: Human immunodeficiency virus 1, p24 production
Procedure: (§3) HuT78 cells were seeded into 96 well microtiter plates at 50,000 cells per 50 µl per well in RF-10 containing 2 µg/ml polybrene (RF-10/2). Compounds were prepared to 4× final concentration in RF-10/2, and 30 µl was added to cells. HIV-1NL4–3 (40 µl in RF-10/2 containing 1600 plaque forming units (pfu)) was added to each well or 40 µl of RF-10/2 was added to the negative controls, and when assaying compound cytotoxicity. pfu were determined by titrating virus stocks on HT4LacZ cells as described by Rocancourt et al. After 24 hours, an additional 90 µl of media or media containing 1× compound was added to each well. At 4 days post-infection, 100 µl of media was removed from each well and replaced with 100 µl of fresh media with or without compound. 48 hours later supernatants were harvested and levels of extracellular p24 determined. Supernatants were diluted 1 in 10,000 and p24 levels assayed using the Vironostika p24 assay kit.

[10] = Cell toxicity counter screen of virus infectivity assay; type: cell-based; conditions: human, HuT78 cells
Procedure: as §3

HIV IN [11] = target: T2, HIV IN; conditions: read-out: IC50 active site directed strand transfer assay; cited from earlier work
LEDGF site of HIV IN = tested on: LEDGF site of HIV IN; parameters: method as in PMID 21767569; conditions: read-out: IC50 AS assay for binding at the LEDGF site; cited from earlier work
HIV IN [12] = target: T2, HIV IN; conditions: read-out: IC50 strand transfer; cited from earlier work
HIV IN [13] = target: T2, HIV IN; conditions: cited from earlier work

Structure (SMILES): O=C(O)c1c(/C=C2\c3ccccc3CC2O)ccc2c1OCO2 (stereo not shown) [Compound 3]
- IC50 [1]: 270 µM

Structure (SMILES): Cc1nnc(C(=O)NC(C)(C)c2nc(C(=O)NCc3ccc(F)cc3)c(O)c(=O)n2C)o1 [raltegravir, reference compound]
- EC50 (HIV-1 with wild type IN): 0.01 µM
- EC50 [2]: > 1 µM
- EC50 [3]: > 1 µM

Structure (SMILES): CCCC(C(=O)O)c1c(C)nc2ccc(Cl)cc2c1-c1ccccc1 (stereo not shown) [LEDGIN-6]
- IC50 [4]: 1.37 µM
- IC50 (HIV IN [5]): 19.5 µM
- EC50 (HIV-1 [6]): 2.73 µM
- EC50 (HIV-1 [7]): 3.45 µM

Structure (SMILES): CN(Cc1ccccc1C(=O)NCC1CCCCC1)Cc1ccc2c(c1C(=O)O)OCO2 [Compound 8]
- IC50 [1]: 100 µM
- binding in the SPR assay (in words) [8]: loss of SPR activity

Structure (SMILES): C=CCN(Cc1ccccc1C(=O)NCc1ccc(OC)cc1)Cc1ccc2c(c1C(=O)O)OCO2 [Compound 9]
- IC50 [1]: 815 µM
- binding in the SPR assay (in words) [8]: retained SPR activity

Structure (SMILES): C=CCN(Cc1ccccc1C(=O)NC(c1ccc(OC)cc1)c1ccc(OC)cc1)Cc1ccc2c(c1C(=O)O)OCO2 [Compound 11]
- IC50 (Flag-His6 fusion protein): 145 µM
- activity in strand transfer assay (HIV IN [9]): inactive
- EC50 [2]: 37 µM
- EC50 [3]: 54 µM
- EC50 (HIV-1NL4-3): 29 µM
- CC50 at 6 days [10]: > 100 µM

Structure (SMILES): O=C(O)c1c(CN2Cc3ccccc3C(=O)N(Cc3ccccc3)C2)ccc2c1OCO2 [Compound 4]
- IC50 [1]: 110 µM
- binding in the SPR assay (in words) [8]: did not bind
- EC50 (HIV-1NL4-3): 275 µM
- CC50 at 6 days [10]: 265 µM

Structure (SMILES): O=C(O)C(O)=CC(=O)c1cn(Cc2ccc(F)cc2)c2cccc(O)c12 [CHI-1043, 4-[1-(4-Fluorobenzyl)-4-hydroxy-1H-indol-3-yl]-2-hydroxy-4-oxobut-2-enoic acid]
- IC50 (HIV IN [11]): 0.14 µM
- IC50 (LEDGF site of HIV IN): 36 µM

Structure (SMILES): C=CCN(Cc1ccccc1C(=O)NC(CCC)c1ccc(OC)cc1)Cc1ccc2c(c1C(=O)O)OCO2 (stereo not shown) [Compound 10]
- IC50 [1]: 29 µM
- IC50 (Flag-His6 fusion protein): 175 µM
- activity in strand transfer assay (HIV IN [9]): inactive

Structure (SMILES): O=C1Cc2ccccc2/C1=C\c1ccc2c(c1C(=O)O)OCO2 [Compound 2]
- IC50 [1]: 200 µM

Structure (SMILES): O=C(NCC1CCCCC1)c1cc(S(=O)(=O)N2CCCCC2)cc(O)c1O [N-(cyclohexylmethyl)-2,3-dihydroxy-5-(piperidin-1-ylsulfonyl) benzamide]
- IC50 (HIV IN [12]): 19 µM
- IC50 (HIV IN [13]): 8 µM

Structure (SMILES): COc1ccc(CNC(=O)c2ccccc2CNCc2ccc3c(c2C(=O)O)OCO3)cc1 [Compound 6]
- IC50 [1]: 270 µM
- binding in the SPR assay (in words) [8]: binding could not be detected

Structure (SMILES): COc1ccc(CNC(=O)c2ccccc2CN(C)Cc2ccc3c(c2C(=O)O)OCO3)cc1 [Compound 7]
- IC50 [1]: 220 µM

Structure (SMILES): COc1ccc(CN2CN(Cc3ccc4c(c3C(=O)O)OCO4)Cc3ccccc3C2=O)cc1 [Compound 5]
- IC50 [1]: 600 µM
